Columns and labels:
tubulin = test: Tubulin stability in U251 1-5 whole cell extracts, Western blot; settings: lucanthone 2.5-100 µM; CRT at 200 µM
Description: (§1) Total purified protein concentration was determined by the ratio of A280/A260. 250 ng of APE1 treated with lucanthone or hycanthone (0.05–100 µM) for 2 h at 37°C in final volume of 30 µl were mixed with an equal volume of gel loading buffer (0.001% bromophenol blue, 4% SDS, 10% 2-ME, 20% glycerol, and 125 mM Tris pH 6.8) and denatured at 95°C for 5 min. Total protein concentration in cell extracts was determined using the Bradford assay (BioRad, Hercules, CA) and 25 µg of total protein from soluble or insoluble cell fractions were mixed with an equal volume of gel loading buffer (0.001% bromophenol blue, 4% SDS, 10% 2-ME, 20% glycerol, and 125 mM Tris pH 6.8) and denatured at 95°C for 5 min. This mixture was separated by SDS-PAGE (4% stacking, 7.5% resolving gel) for 2–3 h at 40 mA on a BioRad MiniPROTEAN II Electrophoresis Cell. To detect proteins, proteins were transferred onto a trans-Blot nitrocellulose membrane (0.45 µm; BioRad) overnight at 4°C at 15 mA in standard Tris-Glycine buffer containing 20% ethanol. […] Chemi-luminescence was developed using an ECL kit according to the manufacturer's instructions and detected by exposing the blot to HyperfilmECL for 30 s–3 min. […]

APE1 [1] = molecular target: T1, APE1 (Homo sapiens, UniProt P27695); test: APE1 cleavage in whole cell extracts of U251 1-5 APE1 overexpressor clone, Western blot with protease inhibitor cocktail; design: the full length APE1 protein was successfully expressed and purified; made in house; host or cells: E. coli BL21/DE3; settings: U251 1-5 whole cell extracts, 2 h, 37°C
Description: as §1

APE1 [2] = molecular target: T1, APE1; test: MALDI-TOF analysis of APE1 degradation; design: the full length APE1 protein was successfully expressed and purified; made in house; host or cells: E. coli BL21/DE3; settings: 100 µM drug
Description: 100 nM of APE1 protein was treated with 100 µM of lucanthone, hycanthone or CRT at 37°C for 2 h and 24 h and analyzed on sinipinic acid matrix on a Voyager-DE STR (Applied Biosystems) MALDI-TOF instrument at the Proteomics facility at SUNYSB in a linear mode.

T1 sequence (P27695 whole entry): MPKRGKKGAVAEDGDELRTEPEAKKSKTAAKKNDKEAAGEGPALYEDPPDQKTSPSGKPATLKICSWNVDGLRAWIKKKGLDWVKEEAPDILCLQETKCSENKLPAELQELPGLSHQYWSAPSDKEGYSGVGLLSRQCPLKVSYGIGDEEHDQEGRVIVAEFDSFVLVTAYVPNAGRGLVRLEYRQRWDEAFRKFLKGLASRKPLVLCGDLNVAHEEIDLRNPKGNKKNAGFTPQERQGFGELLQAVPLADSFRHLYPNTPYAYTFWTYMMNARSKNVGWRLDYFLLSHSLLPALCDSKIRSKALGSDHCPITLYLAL

Concentration causing cleavage of APE1 (APE1 [1]): 200 µM | Time at which APE1 degradation is seen by MALDI (APE1 [2]): 24 h | APE1 protein fragments by MALDI-TOF (APE1 [2]; 37°C, 2 or 24 h): much less cleavage of APE1 | Full length 35.5 kDa APE1 peak by MALDI-TOF (APE1 [2]; 37°C, 24 h): still an intact 35.5 kDa peak
SMILES: O=C(O)c1cc2cccc([N+](=O)[O-])c2[nH]1 [CRT0044876, 7-Nitroindole-2-carboxylic acid]
Effect on tubulin protein (tubulin): some shift in its migration

— paper PMC3174134, “Lucanthone and Its Derivative Hycanthone Inhibit Apurinic Endonuclease-1 (APE1) by Direct Protein Binding” (PLoS ONE, 2011)
